Laboratory results from PubChem BioAssay AID1963429 (Molecular Pharmacology Branch, DTP, NCI, 2024).

Test system: 126254-015-R-J1-PDC complex spheroid growth, % test/control
Assay: Anticancer human tumor 126254-015-R-J1-PDC patient-derived soft tissue sarcoma cell line growth inhibition [Asc]
Settings: for IC50: curve of first compound; for viability, T/C: stronger effect = lower value
Outline: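 Tumor cells were grown as complex spheroids with human endothelial cells (HUVEC) and human mesenchymal stem cells as stroma. Agents were tested alone and in combination, in half-log steps down from the clinical Cmax, or from 10 microM where Cmax was unknown.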

[1] = second compound 0.01 µM, first compound 0.0316 µM
[2] = second compound 0.01 µM, first compound 0.1 µM
[3] = second compound 0.01 µM, first compound 0.316 µM
[4] = second compound 0.01 µM, first compound 1 µM
[5] = second compound 0.01 µM, first compound 3.16 µM
[6] = second compound 0.01 µM, first compound 10 µM
[7] = second compound 0.0316 µM, first compound 0.0316 µM
[8] = second compound 0.0316 µM, first compound 0.1 µM
[9] = second compound 0.0316 µM, first compound 0.316 µM
[10] = second compound 0.0316 µM, first compound 1 µM
[11] = second compound 0.0316 µM, first compound 3.16 µM
[12] = second compound 0.0316 µM, first compound 10 µM
[13] = second compound 0.1 µM, first compound 0.0316 µM
[14] = second compound 0.1 µM, first compound 0.1 µM
[15] = second compound 0.1 µM, first compound 0.316 µM
[16] = second compound 0.1 µM, first compound 1 µM
[17] = second compound 0.1 µM, first compound 3.16 µM
[18] = second compound 0.1 µM, first compound 10 µM
[19] = second compound 0.316 µM, first compound 0.0316 µM
[20] = second compound 0.316 µM, first compound 0.1 µM
[21] = second compound 0.316 µM, first compound 0.316 µM
[22] = second compound 0.316 µM, first compound 1 µM
[23] = second compound 0.316 µM, first compound 3.16 µM
[24] = second compound 0.316 µM, first compound 10 µM
[25] = second compound 1 µM, first compound 0.0316 µM
[26] = second compound 1 µM, first compound 0.1 µM
[27] = second compound 1 µM, first compound 0.316 µM
[28] = second compound 1 µM, first compound 1 µM
[29] = second compound 1 µM, first compound 3.16 µM
[30] = second compound 1 µM, first compound 10 µM
[31] = second compound 3.16 µM, first compound 0.0316 µM
[32] = second compound 3.16 µM, first compound 0.1 µM
[33] = second compound 3.16 µM, first compound 0.316 µM
[34] = second compound 3.16 µM, first compound 1 µM
[35] = second compound 10 µM, first compound 0.0316 µM
[36] = second compound 10 µM, first compound 0.1 µM
[37] = second compound 10 µM, first compound 0.316 µM
[38] = second compound 10 µM, first compound 1 µM
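Further: spheroids exposed to compound for seven days.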
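Wherever viability, T/C is given: 100% = DMSO vehicle control wells.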

Compound	IC50 (second compound 0.1 µM) [µM]	IC50 (second compound 0.316 µM) [µM]	IC50 (second compound 1 µM) [µM]	viability, T/C [13] [%]	viability, T/C [14] [%]	viability, T/C [15] [%]	viability, T/C [16] [%]	viability, T/C [17] [%]	viability, T/C [18] [%]	viability, T/C [19] [%]	viability, T/C [20] [%]	viability, T/C [21] [%]	viability, T/C [22] [%]	viability, T/C [23] [%]	viability, T/C [24] [%]	viability, T/C [25] [%]	viability, T/C [26] [%]	viability, T/C [27] [%]	viability, T/C [28] [%]	viability, T/C [29] [%]	other results
O=C(c1cc(Cc2n[nH]c(=O)c3ccccc23)ccc1F)N1CCN(C(=O)C2CC2)CC1 + CNC(C)C(=O)NC1CN(S(=O)(=O)c2cccc(S(=O)(=O)N3CCC4CCC(C(=O)NC(c5ccccc5)c5ccccc5)N4C(=O)C(NC(=O)C(C)NC)C3)c2)CCC2CCC(C(=O)NC(c3ccccc3)c3ccccc3)N2C1=O	2.77	3.61	1.85	66.2	77.8	75.4	59.6	49.8	27.4	62.2	56.4	59.7	57.8	52.9	29	54.7	62.2	61.4	54.9	44.9	IC50 (second compound 0.01 µM): 9.05 µM; IC50 (second compound 0.0316 µM): 6.18 µM; viability, T/C [1]: 97.3%; viability, T/C [2]: 89.8%; viability, T/C [3]: 94.5%; viability, T/C [4]: 82.8%; viability, T/C [5]: 77.6%; viability, T/C [6]: 47.1%; viability, T/C [7]: 85.1%; viability, T/C [8]: 82.4%; viability, T/C [9]: 78.2%; viability, T/C [10]: 80.2%; viability, T/C [11]: 55.1%; viability, T/C [12]: 46.3%; viability, T/C [30]: 22.2%
C#Cc1c(F)ccc2cc(O)cc(-c3ncc4c(N5CC6CCC(C5)N6)nc(OCC56CCCN5CC(F)C6)nc4c3F)c12 (stereo not given) + CNC(C)C(=O)NC1CN(S(=O)(=O)c2cccc(S(=O)(=O)N3CCC4CCC(C(=O)NC(c5ccccc5)c5ccccc5)N4C(=O)C(NC(=O)C(C)NC)C3)c2)CCC2CCC(C(=O)NC(c3ccccc3)c3ccccc3)N2C1=O	3.97	8.98	0.895	68	62.4	65.9	54.1	55.6	40.5	58.4	58.7	55.6	58.4	50.6	48.1	55.8	49.5	56.1	47.8	46.7	IC50 (second compound 0.01 µM): > 10 µM; IC50 (second compound 0.0316 µM): 7.58 µM; viability, T/C [1]: 77.7%; viability, T/C [2]: 81.8%; viability, T/C [3]: 78.5%; viability, T/C [4]: 73%; viability, T/C [5]: 81.7%; viability, T/C [6]: 63.7%; viability, T/C [7]: 69.6%; viability, T/C [8]: 69.4%; viability, T/C [9]: 71.5%; viability, T/C [10]: 64.8%; viability, T/C [11]: 61.6%; viability, T/C [12]: 46.4%; viability, T/C [30]: 40.9%
C#Cc1c(F)ccc2cc(O)cc(-c3ncc4c(N5CC6CCC(C5)N6)nc(OCC56CCCN5CC(F)C6)nc4c3F)c12 (stereo not given) + Cc1c(S(C)(=O)=O)c(-c2cc(F)cc(N3CCN(c4ccc(NS(=O)(=O)c5ccc(NC(CCN6CCC(C(=O)OCCCP(=O)(O)O)CC6)CSc6ccccc6)c(S(=O)(=O)C(F)(F)F)c5)cc4)CC3)c2)c(-c2ccc(Cl)cc2)n1C(C)C	> 10	> 10	6.58	85.4	92.8	90.4	80.9	72.4	59.9	88.5	86	80.9	79.2	72.4	54.5	84	92.2	73.8	81.9	72.3	IC50 (second compound 3.16 µM): 7.17 µM; IC50 (second compound 10 µM): 9.19 µM; viability, T/C [30]: 37.4%; viability, T/C [31]: 82.6%; viability, T/C [32]: 90.8%; viability, T/C [33]: 83.4%; viability, T/C [34]: 79.5%; viability, T/C (second compound 3.16 µM, first compound 3.16 µM): 65.8%; viability, T/C (second compound 3.16 µM, first compound 10 µM): 43.6%; viability, T/C [35]: 87.1%; viability, T/C [36]: 88.4%; viability, T/C [37]: 81.2%; viability, T/C [38]: 75.5%; viability, T/C (second compound 10 µM, first compound 3.16 µM): 75%; viability, T/C (second compound 10 µM, first compound 10 µM): 47.8%
CCN1CCN(Cc2ccc(Nc3ncc(F)c(-c4cc(F)c5nc(C)n(C(C)C)c5c4)n3)nc2)CC1 + Cc1c(S(C)(=O)=O)c(-c2cc(F)cc(N3CCN(c4ccc(NS(=O)(=O)c5ccc(NC(CCN6CCC(C(=O)OCCCP(=O)(O)O)CC6)CSc6ccccc6)c(S(=O)(=O)C(F)(F)F)c5)cc4)CC3)c2)c(-c2ccc(Cl)cc2)n1C(C)C	> 1	> 1	> 1	88.4	90.1	110	98.4			84.4	95.5	90.3	87			93.3	86.4	97.9	73.3		IC50 (second compound 3.16 µM): > 1 µM; IC50 (second compound 10 µM): > 1 µM; viability, T/C (second compound 0.1 µM, first compound 0.00316 µM): 99.3%; viability, T/C (second compound 0.1 µM, first compound 0.01 µM): 95.5%; viability, T/C (second compound 0.316 µM, first compound 0.00316 µM): 87.8%; viability, T/C (second compound 0.316 µM, first compound 0.01 µM): 89.1%; viability, T/C (second compound 1 µM, first compound 0.00316 µM): 86.5%; viability, T/C (second compound 1 µM, first compound 0.01 µM): 81.7%; viability, T/C (second compound 3.16 µM, first compound 0.00316 µM): 96.6%; viability, T/C (second compound 3.16 µM, first compound 0.01 µM): 87.7%; viability, T/C [31]: 90.1%; viability, T/C [32]: 72.4%; viability, T/C [33]: 86.6%; viability, T/C [34]: 87.3%; viability, T/C (second compound 10 µM, first compound 0.00316 µM): 86.5%; viability, T/C (second compound 10 µM, first compound 0.01 µM): 90.4%; viability, T/C [35]: 86.1%; viability, T/C [36]: 98%; viability, T/C [37]: 87.5%; viability, T/C [38]: 73.8%
